A value given as a limit tells only on which side of the number the result lay.

As to `Cn1cc2c(Cl)cc(-c3ccccc3)nc2n1`, the melting point was 177 to 179 °C.

`COc1ccc2[nH]c(S(=O)Cc3ncc(C)c(N4CCOCC4)c3Cl)nc2c1` (centres undefined) had a melting point of 147 to 148 °C. For `CCOC(=O)C(C(=O)OCC)c1cccc2ccccc12` the value was 57 to 59 °C; for `Sc1nccn1Cc1c(Cl)cccc1Cl`, 242 to 243 °C. The compound `COc1ccc(-n2[nH]c(Cc3c(C)n(C(=O)c4ccc(Cl)cc4)c4ccc(OC)cc34)cc2=O)cc1` registered a melting point of 101 to 103 °C. For `COC(=O)c1ccc(C(C)(O)c2cc3cc(Cl)ccc3n2S(=O)(=O)c2ccc(C(C)C)cc2)cc1` (centres undefined) the value was 163 °C; for `CCn1c(=O)c2[nH]c(/C=C/c3ccc(OCOC)cc3)nc2n(CC)c1=O`, 270 to 271 °C; for `CON=Cc1ccc2c(c1)c1c(n2CCc2cccc(F)n2)CC[C@@H](NC(=O)C2CC2)C1`, 223 to 225 °C.

Regarding `CC(Cc1ccc(F)c(F)c1)C(=O)O` (centres undefined), the melting point was 55 to 56 °C. For `O=C1NC(c2ccc(Cl)cc2)Nc2ccccc21` (centres undefined) the value was 190 °C; for `Cc1nnsc1C(=O)Nc1ccc(-n2nc(C(F)(F)F)cc2C2CC2)nc1`, 170 to 172 °C; for `O=C(NCC(F)(F)F)C1(CCCCN2CCN(c3ccc4cccc(Cl)c4n3)CC2)c2ccccc2Oc2ccccc21`, 68 °C. For `CC(C)Cc1ccc(C(C)C(=O)ON(C(N)=O)C(C)c2ccoc2)cc1` (centres undefined) the value was 55 to 59 °C; for `C/C(=C\c1ccc(O)cc1)c1ccc2c(c1)SC(C)(C)S2`, 123 to 124 °C; for `Cc1cnc2sc(Sc3ccccc3)nn2c1=O`, 141 to 143 °C. As for `CC1N(C)c2cc3[nH]c(=O)cc(C(F)(F)F)c3cc2C1(C)C` (centres undefined), the figure is 248 to 249 °C; as for `CC1CC(N)=NN1c1cncc(Cl)n1` (centres undefined), 147 to 148 °C; as for `CC(Oc1ccc(Oc2ccccc2)cc1)(C(=O)O)C(F)(F)F` (centres undefined), 111 to 112 °C. Compound `CCc1nn2c(N3CCN(C)CC3)cc(N3CCOCC3)nc2c1S(=O)(=O)c1ccccc1` displayed a melting point of more than 250 °C. As for `COc1ccc(OC2OC(COCc3ccccc3)C(OCc3ccccc3)C(O)C2OCc2ccccc2)cc1` (centres undefined), the figure is 84 to 86 °C; as for `COc1ccc(C(=O)Nn2c(=O)[nH]c3ccccc3c2=O)cc1`, 289 °C; as for `NC(=O)NCc1cc(Cl)cc(-c2csc(N=C(N)N)n2)n1`, more than 300 °C. On to `COc1ccc(CNc2c(NC(C)(C)C)c(=O)c2=O)c(OC)c1`, for which the melting point lay in the range of 225 to 226 °C. For `NC(=NOCC1CC1)c1c(F)cccc1C(F)(F)F` the value was 63 to 64 °C; for `CC(C)(C)NCC(Cc1ccc(OCc2ccccc2)cc1)NCc1ccc(C(C)(C)C)cc1` (centres undefined), 63 to 65 °C; for `CN(C)C(=O)ON=C1n2ccnc2SC1(C)C`, 99 to 102 °C. As for `CCCOc1ccc(-c2scc(-c3ccccc3)c2CC(=O)NC(=N)N)cc1`, the figure is 94 to 95 °C; as for `O=C(Nc1cc(-c2nc(Cc3ccccc3)no2)ccn1)c1ccccc1`, 150 to 151 °C; as for `Cc1c(CO)sc2c(Br)cccc12`, 129 to 130 °C.

In turn, `C=C[C@@]12CCC[C@@H](C#N)[C@@H]1C(=O)CC2` returned a melting point of 41 to 42 °C. For `CCOC=Nc1[nH]nc(Nc2cccc(OC)c2)c1C#N` the value was 181 to 183 °C. As for `COc1cc(CCCN(C)Cc2ccc(OC)c(OC)c2)ccc1NC(=O)c1cccc2c(=O)c3cccc(OC)c3[nH]c12`, the figure is 105 °C. For `CC1(C)CC(OC(=O)c2ccccc2)CC(C)(C)N1OCC=Cc1ccccc1` the value was 115 to 116 °C; for `CS(=O)(=O)OCC1CN(c2ccc3ccccc3c2)C(=O)O1` (centres undefined), 169 to 172 °C; for `CC(C)(C)OC(=O)NC1CCCCCC=CC2CC2(C(=O)NS(=O)(=O)C2CC2)NC(=O)C2CC(OC(=O)c3ccc(-c4ccccc4)cc3)CN2C1=O` (centres undefined), 162 to 164 °C. In turn, `COc1cc(C)nc(NC(=O)NS(=O)(=O)c2ccccc2C(=O)Nc2nccs2)n1` displayed a melting point of 185 to 187 °C.

Turning to `Nc1nc2ccccc2c2c1nc1n2C(CCl)COC1` (centres undefined), the melting point lay within 230 to 232 °C. In the case of `O=C(CCc1ccccc1)Oc1n[nH]c(=O)c2nc3cc(Cl)cc(Cl)c3c(O)c12`, the melting point is more than 395 °C. As for `COc1ccc(N2CCN(c3c(C)c(C)c4c(c3C)C(O)(c3ccoc3)C(C)(C)O4)CC2)cc1` (centres undefined), the figure is 148 to 149 °C. As for `S=c1[nH]nnn1CCN1CCOCC1`, the figure is 226 to 228 °C; as for `CC1(C)Oc2ccc3nc(Cl)ccc3c2C(NCCc2ccccc2)C1O` (centres undefined), 141 to 143 °C; as for `Cc1ccccc1CNc1ncnc2c1ncn2C1OC(CO)C(O)C1O` (centres undefined), 162 to 164 °C. As for `C=C(C)C(=O)NC(=O)Nc1ccccc1`, the melting point lay in the range of 165 to 166 °C. For `OCCc1ccc(Nc2ncc3c(n2)-c2ccccc2C(c2ccc(Cl)cc2)C3)cc1` (centres undefined) the value was 163 to 164 °C; for `Cc1cc2c(-c3cccc(C=O)c3)c(CC(=O)Nc3ccc(Cl)cc3C(F)(F)F)c(=O)oc2cc1Cl`, 232 to 233 °C; for `COC(=O)c1ccc(OC(=O)c2ccccc2C(=O)Oc2ccc(C(=O)OC)cc2)cc1`, 123 to 125 °C. On to `COc1cc(Cl)ccc1C(C)=O`, for which the melting point turned out to be 55 °C.

Compound `CCOC(=O)CCc1cc(OCC(=O)NNC(C)=O)nn1Cc1ccc(Cl)cc1Cl` displayed a melting point of 167 to 170 °C.

Consider `Cc1cccc(-c2[nH]c(C(C)C)nc2-c2cccc(-c3ccc(C(F)(F)F)cc3)c2)n1`, for which the melting point fell in the range of 91 to 93 °C.

With `CN1C(=O)N(CC2=C(CC3CCCC3)C(=O)OC2)C(=O)C1(C)C`, the melting point is 77 to 79 °C. For `O=C1C=C2CN(C(C(=O)C3CC3)c3ccccc3Cl)CCC2S1` (centres undefined) the value was 119 to 123 °C; for `O=C1CCC(c2ccccc2)(c2ccccc2)C2CN(C(Cc3ccccc3)=NCc3ccco3)CC12` (centres undefined), 128 °C. As for `O=C(Nc1ccc(F)cc1)c1ccc([N+](=O)[O-])cc1`, the figure is 143 to 146 °C. For `C#Cc1cccc(Nc2ncnc3ccc(NC(=O)c4ccc(C(=O)Nc5ccccc5N)nc4)cc23)c1` the value was 213 to 216 °C; for `CCOP(=O)(Cc1cc(C(C)(C)C)c(O)c(C(C)(C)C)c1)OCC`, 114 °C. Compound `CN1CCN(c2nc(Oc3ccccc3)c3ccccc3n2)CC1` came in with a melting point of 102 to 103 °C. Take `COc1ccc2nc3c(cc2c1)c(C#N)nn3C`: the melting point lay in the range of 190 to 191 °C. As for `C=CC1(COC(C)=O)OC(OC2C(COCc3ccccc3)OC(OC)C(OCc3ccccc3)C2OCc2ccccc2)C(OC(C)=O)C(OC)C1OC(C)=O` (centres undefined), the figure is 47 °C. In turn, `Oc1ccccc1-c1ccnc(-c2ccccc2)n1` gave a melting point of 195 to 198 °C. For `O=C(N[C@@H](CSc1ccccc1[N+](=O)[O-])C(=O)O)OCc1ccccc1` the value was 84 to 88 °C; for `CCN1c2ncccc2C(=O)N(C)c2ccc(O)nc21`, 215 to 218 °C; for `CCCc1nn(C)c2c(=O)[nH]c(-c3ccccc3OCC)nc12`, 143 to 146 °C.

On to `CCC(=NC#N)N(C)C(C)c1ccc(Cl)cc1Cl` (centres undefined), for which the melting point turned out to be 148 °C. For `C=C(C(=O)OC(C)(C)C)C(O)c1ccc(C(=O)OC)cc1` (centres undefined), the melting point worked out at 70 °C. For `CNC(=O)N(O)C(C)c1ccc(Br)cc1` (centres undefined) the value was 129 to 130 °C; for `CC(C)CC(=O)Nc1c(C(=O)C2CCCCC2)[nH]c2cc(Cl)ccc12`, 209 to 215 °C. As for `COC(=O)C1CC(O)CN1C(=O)c1ccc2c(c1)OCCO2` (centres undefined), the figure is 185 °C; as for `O=C(O)C1Cc2c([nH]c3ccccc23)C(CO)N1` (centres undefined), 231 to 233 °C; as for `C=C(CC(NC(=O)OC(C)(C)C)C(=O)OCC)CC(NC=O)(C(=O)OCC)C(=O)OCC` (centres undefined), 68 °C. Regarding `Nc1cc(-c2nnc(SCc3ccc(F)cc3)o2)ccn1`, the melting point is 200 to 201 °C. Take `Nc1ccc2c(cnn2Cc2cccc(F)c2)c1`: the melting point came out at 130 °C.

`CCOC(=O)c1nc(N)sc1-c1cn2cc(C)ccc2n1` came in with a melting point of 268 to 271 °C. For `CN1C(=O)C(F)N=C(c2ccccc2)c2cc(Cl)ccc21` (centres undefined) the value was 145 to 147 °C.

Turning to `COc1cc(N)c(Cl)cc1C(=O)NCC1CCN(CCCCN)CC1`, the melting point lay within 104 to 107 °C. `C=CCNc1nc(NC(C)(C)C)c2scc(C)c2n1`: the melting point lay in the range of 89 to 90 °C.

`Nc1nnc(-c2ccc(CN3CCCCCC3)s2)s1`: the melting point lay within 156 to 157 °C.

For `CCOC(OCC)c1cc(NC(c2ccccc2)(c2ccccc2)c2ccccc2)c(F)c(-c2ccc(C(F)(F)F)nc2)n1`, the melting point lay in the range of 58 to 60 °C. For `O=C(/C=C/[C@H]1CC[C@@H]2OC(=O)C[C@@H]21)COc1ccccc1` the value was 91 °C. In turn, `CC1NC(=O)NN=C1c1ccc(N(C)C)cc1` (centres undefined) displayed a melting point of 255 to 261 °C. Turning to `CSc1ccc2c(c1)N=CC(SC)C2=O` (centres undefined), the melting point was in the range of 90 to 92 °C.

Compound `O=C(O)C1=C(C(=O)Nc2ccc(Cl)cc2F)CCCC1` displayed a melting point of 91 to 93 °C.

`Cc1cc(C2(C(F)(F)F)CC(n3cncn3)=NO2)ccc1NC(=O)OC(C)(C)C` (centres undefined) had a melting point of 46 to 48 °C. For `O=C(c1ccc(Nc2ccnc3cc(Cl)ccc23)cc1)N1CCNCC1` the value was 248 to 250 °C; for `COC(=O)CCCN1CCC(NC(=O)c2ccccc2)CC1`, 116 °C. For `C(=C\c1nc(COc2ccc(CCCCCCn3ccnc3)cc2)co1)/c1ccccc1` the value was 108 to 109 °C; for `CS(=O)(=O)N(N)C(=O)c1cc([N+](=O)[O-])c(C(F)(F)F)cc1N`, 221 to 227 °C; for `CC(=O)C=Cc1ccc(O)cc1`, 104 to 105 °C.

In the case of `O=C(OCCl)n1c(-c2cscn2)nc2ccccc21`, the melting point is 143 to 144 °C. For `CC(Oc1ncn(-c2cccc(Cl)c2)n1)C(N)=O` (centres undefined) the value was 143 to 145 °C.

(Values after a melting point compilation (Tetko et al.; mined from patent text by program, amines drawn as free bases though some values may be those of a salt).)
